Laboratory results published in patent US10940188B2, “Compounds and methods for treatment and prevention of Flavivirus infection” (priority 2016, dated 2021).
Counter-ions that a name gives are not always drawn. Like-named read-outs stand apart in the source and are kept apart here. Numbered stars: 1 amine (or outer) side, 2 acyl side, 3 side chain; on linkers, the order of the positions; unused ones are H or OH. Bridge positions count the residues as written; N and C are the ends. Square brackets hold non-standard residues; d marks the D form. Peptide text beside a SMILES is read from it. I, II: the chains in the order shown. Actinocin(9to1) = Cc1c2oc3c(C)ccc(C(=O)[*:1])c3nc-2c(C(=O)[*:2])c(N)c1=O; NMeV = CN[C@H](C(=O)O)C(C)C; Sar = CNCC(=O)O

Tests used:
HEK293 cells = assay: Toxicity IC50 (cell-killing activity) of the NS1 TR-FRET screen; type: cell-based, human
ZIKV MR766 NS1 = assay: microbe, parasite or virus in culture; type: cell-based, Zika virus; conditions: read-out: NS1-IC50
Protocol: A one-step NS1 TR-FRET (Time-resolved fluorescence resonance energy transfer) assay for a screen of anti-ZIKV compounds was carried out. Human embryonic kidney cell line HEK293 cells were seeded into 384-well plates and infected with ZIKV MR766 at a MOI of 0.5 for 2 days. The FRET assay was performed with two clones of anti-NS1 antibody (ab) differentially labelled with donor and acceptor fluorophores.

[1] = cell-killing activity, read-out: Tox IC50
[2] = HEK293 cells, ZIKV MR766, MOI 0.5, 2 days, virus-inhibiting activity
[3] = Homo sapiens, HEK293, cell-killing activity, read-out: Tox IC50

Structure (SMILES) | IC50 (ZIKV MR766 NS1; [2]) [nM] | Tox IC50 (HEK293 cells; cell-killing activity) | IC50 (ZIKV MR766 NS1; Zika virus, HEK293, 48 h) [nM] | also measured
CN[C@@H]1C[C@H]2O[C@@](C)([C@@H]1OC)n1c3ccccc3c3c4c(c5c6ccccc6n2c5c31)C(=O)N[C@H]4O [7-Hydroxystaurosporine] | 760 | – | – | IC50 (HEK293 cells; [1]): 102000 nM
CC[C@@]1(O)C(=O)OCc2c1cc1n(c2=O)Cc2cc3cc(O)ccc3nc2-1 [10-hydroxycamptothecin] | 46.6 | No | – | –
CC[C@@]1(O)C(=O)OCc2c1cc1n(c2=O)Cc2cc3ccccc3nc2-1 [(S)-(+)-Camptothecin] | 26.4 | No | – | –
CC[C@H](CC#N)OC(=O)N[C@@H](C)c1cccc(NC(=O)Nc2ccc(-c3cnco3)c(OC)c2)c1 [AVN-944] | – | – | 136 | IC50 (HEK293 cells; Homo sapiens, HEK293, read-out: Tox IC50): 20000 nM
NC(=O)Nc1cc(-c2cccc(F)c2)sc1C(=O)N[C@H]1CCCNC1 [AZD-7762] | – | No | 366 | –
Cc1c2oc3c(C)ccc(C(=O)N[C@@H]4C(=O)N[C@H](C(C)C)C(=O)N5CCC[C@H]5C(=O)N(C)CC(=O)N(C)[C@@H](C(C)C)C(=O)O[C@@H]4C)c3nc-2c(C(=O)N[C@@H]2C(=O)N[C@H](C(C)C)C(=O)N3CCC[C@H]3C(=O)N(C)CC(=O)N(C)[C@@H](C(C)C)C(=O)O[C@@H]2C)c(N)c1=O [Actinomycin D] (I: T[dV]P[Sar][NMeV] / II: T[dV]P[Sar][NMeV]; ester I:1-I:C, II:1-II:C; linker I:N-II:N via Actinocin(9to1)) | 352 | No | – | –
CC[C@@H]1C(=O)N(C)c2cnc(Nc3ccc(C(=O)NC4CCN(C)CC4)cc3OC)nc2N1C1CCCC1 [BI-2536] | – | No | – | –
COC(=O)[C@]12CCC(C)(C)C[C@H]1[C@H]1C(=O)C=C3[C@@]4(C)C=C(C#N)C(=O)C(C)(C)[C@@H]4CC[C@@]3(C)[C@]1(C)CC2 [Bardoxolone methyl] | – | – | 282 | IC50 (HEK293 cells; [3]): 2680 nM
OCCCNc1cc(-c2ccnc(Nc3cccc(Cl)c3)n2)ccn1 [CGP-60474] | 794 | – | – | IC50 (HEK293 cells; [1]): 60000 nM
O=c1[nH]c2ccc(Cl)cc2c(N[C@@H]2CN3CCC2CC3)c1-c1nc2ccccc2[nH]1 [CHIR-124] | 405 | – | – | IC50 (HEK293 cells; [1]): 3250 nM
C/C=C(\C)C(=O)N[C@@H](c1ccccc1)[C@@H](O)C(=O)O[C@H]1C[C@@]2(O)[C@@H](OC(=O)c3ccccc3)[C@@H]3[C@]4(OC(C)=O)CO[C@@H]4C[C@H](O)[C@@]3(C)C(=O)[C@H](OC(C)=O)C(=C1C)C2(C)C [Cephalomannine] | – | No | 221 | –
C[C@H]1CCC/C=C/[C@@H]2C[C@H](O)C[C@H]2[C@H](O)/C=C/C(=O)O1 [Cyanein] | 432 | No | – | –
C[C@@H]1C[C@@H]([C@H](O)CC2CC(=O)NC(=O)C2)C(=O)[C@@H](C)C1 [Cycloheximide] | – | No | 287 | –
COc1cccc2c1C(=O)c1c(O)c3c(c(O)c1C2=O)C[C@@](O)(C(C)=O)C[C@@H]3O[C@H]1C[C@H](N)[C@H](O)[C@H](C)O1 [Daunorubicin] | – | No | 536 | –
CC(C)C[C@H](NC(=O)[C@@H](NC(=O)c1cccc(-c2ccccc2)n1)[C@@H](C)O)B(O)O [Delanzomib] | – | – | 58.5 | IC50 (HEK293 cells; [3]): 300 nM
C[C@H]1O[C@@H](O[C@H]2[C@@H](O)C[C@H](O[C@H]3[C@@H](O)C[C@H](O[C@H]4CC[C@@]5(C)[C@H](CC[C@@H]6[C@@H]5C[C@@H](O)[C@]5(C)[C@@H](C7=CC(=O)OC7)CC[C@]65O)C4)O[C@@H]3C)O[C@@H]2C)C[C@H](O)[C@@H]1O [Digoxin] | – | – | 152 | IC50 (HEK293 cells; [3]): 60000 nM
CS[C@H]1SC[C@H]2C(=O)N(C)[C@@H](C(C)C)C(=O)OC[C@@H](NC(=O)c3cnc4ccccc4n3)C(=O)N[C@@H](C)C(=O)N(C)[C@@H]1C(=O)N(C)[C@@H](C(C)C)C(=O)OC[C@@H](NC(=O)c1cnc3ccccc3n1)C(=O)N[C@@H](C)C(=O)N2C [Echinomycin] | – | No | 17.4 | –
O=c1[nH]c(=O)n([C@H]2C[C@H](O)[C@@H](CO)O2)cc1F [Floxuridine] | – | – | 918 | IC50 (HEK293 cells; [3]): 60000 nM
Cn1c2ccccc2c2c3c(c4c5ccccc5n(CCC#N)c4c21)CNC3=O [Go-6976] | – | – | 944 | IC50 (HEK293 cells; [3]): 20200 nM
CC(=O)[C@]1(O)Cc2c(O)c3c(c(O)c2[C@@H](O[C@H]2C[C@H](N)[C@H](O)[C@H](C)O2)C1)C(=O)c1ccccc1C3=O [Idarubicin hydrochloride] | – | No | 168 | –
Cc1ccc(C(=O)N(CCCN)[C@@H](c2nc3cc(Cl)ccc3c(=O)n2Cc2ccccc2)C(C)C)cc1 [Ispinesib] | – | – | 67.4 | IC50 (HEK293 cells; [3]): 37500 nM
